The values that follow come from patent US8618100B2, “Compounds with antibacterial activity against Clostridium” (Elanco Animal Health Ireland Limited, priority 2010, dated 2013).

Data set [1] deals with Clostridium perfringens (strain 56). Briefly: microbe, parasite or virus in culture. Format: cell-based. The note with it: 24 h, read-out: IC90 against C. perfringens.
For data set [2], the system named is Clostridium difficile (ATCC9689). Briefly: In-vitro anti-bacterial activity against C. difficile (D.1.2). Format: cell-based. Particulars: Clostridioides difficile, Reinforced Clostridial broth, 37° C., 48 hours, anaerobic, OD 570 nm.
The test system of another data set is Moraxella catarrhalis. Nature of the data set: In-vitro test against several bacteria (D.1.3): M. catarrhalis. Format: cell-based. Particulars: Gram negative, Brain heart Infusion medium, 20-24 hours aerobic, read-out: IC90 against M. cattarhalis. On the procedure: (§1) The plates were incubated at 37° C.
The test system of the next data set is Acinetobacter baumanii. Nature of the data set: In-vitro test against several bacteria (D.1.3): A. baumanii. The note with it: Acinetobacter baumannii; Gram negative; Nutrient broth; 20-24 hours aerobic. Type of data set: cell-based. The procedure:
as §1

In another data set the test system is Enterococcus faecalis. Nature of the data set: In-vitro test against several bacteria (D.1.3): E. faecalis. Format: cell-based. The note with it: Gram positive, Todd Hewitt medium, 20-24 hours in 5% CO2; for IC90: Enterococcus faecalis. The procedure: (§2) The plates were incubated at 37° C. […] Enterococcus faecalis, Streptococcus pneumonia: Todd Hewitt medium; incubation for 20-24 hours in 5% CO2.

The test system of the next data set is Streptococcus pneumonia. Nature of the data set: In-vitro test against several bacteria (D.1.3): S. pneumonia. Type of data set: cell-based. The note with it: Gram positive, Todd Hewitt medium, 20-24 hours in 5% CO2; for IC90: Streptococcus pneumoniae. On the procedure: as §2
For another data set, the system named is Mycobacterium smegmatis. Briefly: In-vitro test against several bacteria (D.1.3): M. smegmatis. Type of data set: cell-based. The note with it: Mycolicibacterium smegmatis; Mueller Hinton medium; 48 hours aerobic. On the procedure:
The plates were incubated at 37° C. […] Mycobacterium smegmatis: Mueller Hinton medium; incubation for 48 hours in aerobic conditions.

In the next data set the test system is Escherichia coli. Nature of the data set: In-vitro test against several bacteria (D.1.3): E. coli. Particulars: read-out: IC90 against E. coli.
The test system of a further data set is Staphylococcus aureus. Nature of the data set: In-vitro test against several bacteria (D.1.3): S. aureus. The note with it: for IC90: Staphylococcus aureus, read-out: IC90 against S. aureus.
The next data set has as its system Bacillus subtilis. Nature of the data set: In-vitro test against several bacteria (D.1.3): B. subtilis. The note with it: read-out: IC90 against B. subtilis.
The next data set has as its system Klebsiella pneumoniae. Nature of the data set: In-vitro test against several bacteria (D.1.3): K. pneumoniae. The note with it: read-out: IC90 against K. pneumoniae.
Another data set has as its system Pseudomonas aeruginosa. Nature of the data set: In-vitro test against several bacteria (D.1.3): P. aeruginosa. Particulars: read-out: IC90 against P. aeruginosa.
For data set [3], the system named is Staphylococcus epidermidis. Nature of the data set: In-vitro test against several bacteria (D.1.3): S. epidermidis. The note with it: for IC90: Staphylococcus epidermidis, read-out: IC90 against S. epidermidis.
For the next data set, the system named is Listeria monocytogenes. Nature of the data set: In-vitro test against several bacteria (D.1.3): L. monocytogenes. The note with it: read-out: IC90 against L. monocytogenes.
Data set [4] deals with Methicillin-Resistant Staphylococcus aureus. Nature of the data set: In-vitro test against several bacteria (D.1.3): Methicillin-Resistant S. aureus. Particulars: for IC90: Staphylococcus aureus, read-out: IC90 against Methicillin-Resistant S. aureus.
The mark [5] stands for this setting: Gram positive, Mueller Hinton medium, 20-24 hours aerobic.

In brackets after ≈: the same amount, converted by molar mass.

In the case of `CNc1nc(NCCCN[C@@H]2CCOc3c(Br)cc(Br)cc32)nc2c(Cl)cnn12` [(3)], the melting point fell in the range of 108.8 to 118.6 °C.
For the molecule `Cl.Oc1nc(NCCCN[C@@H]2CCOc3c(Br)cc(Br)cc32)nc2ccnn12` [Compound (2)], the melting point fell in the range of 234.6 to 235.6 °C. Also, the IC90 in [1] stood at 0.5 µg/mL. In [2], this molecule registered an IC90 of 2 µg/mL. In addition, in the data set with Moraxella catarrhalis, the IC90 came out at 16 µg/mL. In addition, in the data set with Acinetobacter baumanii, the IC90 is over 64 µg/mL. The IC90 in the data set with Enterococcus faecalis was found to be 1.5 µg/mL. For the same molecule, in the data set with Streptococcus pneumonia, the “IC90 against S. pneumonia” value was over 31 µg/mL and the IC90 was over 31 µg/mL. In the data set on Mycobacterium smegmatis, this molecule gave an IC90 of over 31 µg/mL. For the same molecule, the IC90 in the data set with Escherichia coli was over 31 µg/mL. Besides, in the data set on Staphylococcus aureus, the IC90 lay within 8 to 15 µg/mL. The IC90 in the data set on Bacillus subtilis came to 4 µg/mL. For the same molecule, in the data set on Klebsiella pneumoniae, the IC90 is over 64 µg/mL. For the same molecule, in the data set with Pseudomonas aeruginosa, the IC90 is over 75 µg/mL. Further, in data set [3], the IC90 amounted to 15 µg/mL. Besides, the IC90 with Listeria monocytogenes came out at 2 µg/mL. The IC90 in [4] was 7 to 13 µg/mL.
Regarding `O=c1cc(NCCCN[C@@H]2CCOc3c(Br)cc(Br)cc32)[nH]c2ccsc12` [REP3123, 5-[3-((R)(+)-6,8-dibromo-chroman-4-ylamino)-propylamino]-4H-thieno[3,2-b]pyridine-7-one], the IC90 in [1] is 0.25 µg/mL (≈ 0.487 µM); in [2], 0.5 to 1 µg/mL (≈ 0.974 to 1.95 µM); with Moraxella catarrhalis, 16 µg/mL (≈ 31.2 µM); in the data set on Acinetobacter baumanii it was over 64 µg/mL; in the data set with Enterococcus faecalis, under 0.25 µg/mL; in the data set on Streptococcus pneumonia, 1 µg/mL (≈ 1.95 µM). Further, the IC90 in the data set on Mycobacterium smegmatis was 6 to 8 µg/mL (≈ 11.7 to 15.6 µM); in the data set with Escherichia coli, over 32 µg/mL; in the data set with Staphylococcus aureus, under 0.25 µg/mL; in the data set with Bacillus subtilis, 0.12 µg/mL (≈ 0.234 µM); with Klebsiella pneumoniae, over 64 µg/mL; in the data set on Pseudomonas aeruginosa, over 78 µg/mL. Also, the IC90 in data set [3] was under 0.25 µg/mL; in the data set on Listeria monocytogenes it was 0.12 µg/mL (≈ 0.234 µM); in data set [4], under 0.25 µg/mL. The “IC90 against E. faecalis” value in the data set on Enterococcus faecalis was under 0.25 µg/mL. The “IC90 against S. aureus” value in the data set on Staphylococcus aureus (setting [5]) was under 0.25 µg/mL. Moreover, the “IC90 against S. epidermidis” value in [3] (setting [5]) was under 0.25 µg/mL. Further, in data set [4] (setting [5]), the “IC90 against Methicillin-Resistant S. aureus” value is under 0.25 µg/mL.
`Nc1nc(NCCCN[C@@H]2CCOc3c(Br)cc(Br)cc32)nc2c(Cl)cnn12` [(4)] yielded a melting point of 78.7 to 94.1 °C.

What is called melting point is the temperature of the solid-liquid transition. The IC90 is the concentration at which the effect reaches the 90% level.
